Drawing on PubChem BioAssay (NCI), this text covers TGI for 23 compounds.

Common to all, as to assay: NCI tumour cell line growth inhibition, 48 h
Experiment [1] relates to LOX IMVI melanoma.
Experiment [2] deals with UACC-62 melanoma.
For experiment [3], the system named is SK-MEL-5 melanoma.
Experiment [4] has as its system DU-145 prostate.
For experiment [5], the system named is SK-OV-3 ovarian.
Experiment [6] has as its system KM12 colon.
Experiment [7] has as its system HS 578T breast.
The subject of experiment [8] is MDA-MB-231 breast.
Experiment [9] has as its system HT29 colon.
The subject of experiment [10] is HOP-62 NSCLC.
For experiment [11], the system named is U251 CNS.
The subject of experiment [12] is MDA-MB-435.
The test system of experiment [13] is SN12C renal.
Experiment [14] has as its system UACC-257 melanoma.

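Exposure lasted 48 hours, with cells grown in 96-well plates and compounds tested at five concentrations. TGI: concentration producing complete growth inhibition.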

For `CSC1=N/C(=C\c2ccco2)C(=O)N1CN1CCCCC1`, the TGI in [1], in [2], in experiment [3], in [4], in experiment [5] and in [6] was more than 100 µM throughout. Moreover, the TGI in [7], in [8], in experiment [9], in [10], in experiment [11] and in experiment [12] was more than 100 µM in each case. Besides, the TGI in experiment [13] is more than 100 µM.

For the compound `C#C[C@]1(O)CCC2C3CCc4cc(Oc5nc(F)nc(-c6c7cc8ccccc8cc7c7n6CCS7)n5)ccc4C3CCC21C` (some centres not stated), the TGI in experiment [14] is more than 100 µM; in experiment [1], more than 100 µM; in [2], 55.3 µM; in [3], more than 100 µM; in experiment [5], more than 100 µM; in experiment [6], more than 100 µM. Besides, the TGI in [9] is 74.3 µM; in experiment [10], more than 100 µM; in experiment [11], more than 100 µM; in experiment [13], more than 100 µM.

With `O=C(C1C(c2ccccc2)N1C(c1ccccc1)c1ccccc1)C1C(c2ccccc2)N1C(c1ccccc1)c1ccccc1` (configuration not stated), the TGI in [14] is 40.3 µM; in [3], 49.8 µM; in [5], more than 100 µM; in [6], 72.8 µM; in experiment [7], 46.3 µM; in experiment [8] it was 45.4 µM. Further, the TGI in experiment [9] is 30.2 µM; in experiment [10], more than 100 µM; in [11], 71.8 µM; in experiment [12] it was more than 100 µM; in [13], 46.9 µM.

In the case of `CCCN1CN(C(C(=O)N[C@@H]2C(=O)N3C(C(=O)O)=C(C)CSC23)c2ccc(O)cc2)CSC1=S` (some centres not stated), the TGI in [14], in [1], in experiment [2], in experiment [3], in experiment [5] and in experiment [6] was more than 100 µM throughout. In addition, the TGI in experiment [9], in experiment [10], in experiment [11] and in [13] was more than 100 µM throughout.

In the case of `CC1(C)CCC[C@@]2(C)C1CC[C@H]1CC(O)C3(C)CCC12C3` (some centres not stated), the TGI in [14] was found to be 32.1 µM; in experiment [1], 28.9 µM; in experiment [2] it was 29.2 µM; in experiment [3], 31.4 µM; in experiment [5] it was 36.3 µM; in experiment [6] it was 31.3 µM. Moreover, the TGI in experiment [9] was 32.1 µM; in experiment [10], 34.5 µM; in experiment [11], 32.3 µM; in experiment [13] it was 30.7 µM.

Take `CCCn1c(SCC)c2cc3cc4ccccc4cc3cc2c1-c1nc(F)nc(F)n1`: the TGI in [14], in [1], in experiment [3], in [5], in experiment [6] and in experiment [9] was more than 100 µM in each case. In addition, the TGI in [10] and in [13] was more than 100 µM throughout.

In the case of `COc1cc(C=Nc2ccc(C(C)C)cc2)cc(OC)c1OC`, the TGI in [14], in experiment [1], in experiment [2], in [3], in [5] and in experiment [6] was more than 100 µM throughout. In addition, the TGI in experiment [9], in experiment [10], in experiment [11] and in [13] was more than 100 µM each time.

In the case of `OC(C/C(=N\N1CCCCC1)c1cccs1)(C(F)(F)F)C(F)(F)F`, the TGI in experiment [14], in [1], in [2], in [3], in experiment [4] and in experiment [5] was more than 10 µM throughout. The TGI in experiment [6], in [7], in experiment [8], in [9], in experiment [10] and in experiment [11] was more than 10 µM each time. The TGI in experiment [12] and in experiment [13] was more than 10 µM each time.

For the compound `CC(C)C1CCC/C=C/C=C/C=C/C=C/C(OC2OC(C)C(O)C(N)C2O)CC2OC(O)(CC(O)CC(O)C(O)CCC(=O)O1)CC(O)C2C(=O)O` (configuration not stated), the TGI in experiment [2], in [3], in [5], in [9], in [10] and in experiment [11] was more than 52.5 µM each time. The compound further came in with a TGI in experiment [13] of more than 52.5 µM.

As for `O=C1c2c(ccc3c2CCC3)CC12Cc1cc3c(cc1C2)CCC3`, the TGI in experiment [14], in [1], in experiment [3], in [4], in experiment [5] and in experiment [6] was more than 100 µM in each case. The TGI in experiment [7], in experiment [8], in [9], in experiment [10], in [11] and in [12] was more than 100 µM each time. Moreover, the TGI in [13] is more than 100 µM.

As to `COc1ccc(NC(C)=O)cc1C1CCC(=O)N1` (configuration not stated), the TGI in experiment [14], in experiment [1], in experiment [2], in experiment [3], in [4] and in experiment [5] was more than 100 µM in each case. The TGI in experiment [6], in [7], in experiment [8], in experiment [9], in experiment [10] and in experiment [11] was more than 100 µM throughout. For the same compound, the TGI in experiment [12] and in experiment [13] was more than 100 µM throughout.

`CC/C=C/C(=O)CC(O)(C(F)(F)F)C(F)(F)F`: the TGI in experiment [14], in experiment [1], in experiment [2], in experiment [3], in experiment [4] and in experiment [5] was more than 100 µM each time. Also, the TGI in experiment [6], in [7], in experiment [8], in experiment [9], in experiment [10] and in [11] was more than 100 µM throughout. Further, the TGI in [12] and in experiment [13] was more than 100 µM throughout.

Consider `COC(=O)c1ccccc1/C=C1\Cc2cc(C)cc(C)c2C1=O`, for which the TGI in experiment [14], in experiment [1], in [2], in [3], in [4] and in experiment [6] was more than 100 µM each time. Further, the TGI in experiment [7], in experiment [8], in experiment [9], in experiment [10], in experiment [11] and in experiment [13] was more than 100 µM each time.

With `O=C1CCC2CCC1C2` (configuration not stated), the TGI in experiment [14], in [1], in [2], in [3], in experiment [4] and in [5] was more than 100 µM each time. The TGI in experiment [6], in [7], in experiment [8], in experiment [9], in experiment [10] and in experiment [11] was more than 100 µM in each case. Also, the TGI in [12] and in [13] was more than 100 µM throughout.

Regarding `C[C@H]1C[C@H](C)c2ccccc2N(C)C1=Nc1ccccc1`, the TGI in [14] is 48.2 µM; in experiment [1], 31.7 µM; in experiment [2], more than 100 µM; in [3], 31.3 µM; in experiment [4], more than 100 µM; in experiment [6], more than 100 µM. For the same compound, the TGI in experiment [7] is more than 100 µM; in experiment [8], 41.4 µM; in experiment [9], 23.3 µM; in experiment [10] it was more than 100 µM; in [12] it was 52.8 µM; in experiment [13] it was more than 100 µM.

As for `CCOC(=O)[C@@H]1ON2O[C@H](OC3CCCC3(c3ccccc3)c3ccccc3)C[C@H]3OC(=O)[C@@H]1C32` (some centres not stated), the TGI in experiment [14] was more than 100 µM; in experiment [1], 86.7 µM; in experiment [2] it was more than 100 µM; in experiment [3] it was more than 100 µM; in [4], more than 100 µM; in experiment [5], more than 100 µM. The TGI in [6] was 85.4 µM; in experiment [7] it was more than 100 µM; in experiment [8], more than 100 µM; in experiment [9], more than 100 µM; in experiment [10], more than 100 µM; in experiment [11], more than 100 µM. Further, the TGI was 97.9 µM in experiment [12] and more than 100 µM in experiment [13].

As for `COC(=O)C1[C@@H](C(=O)OC)C12C=Cc1ccccc1C=C2` (some centres not stated), the TGI in experiment [14], in experiment [1], in experiment [2], in experiment [3], in experiment [5] and in experiment [6] was more than 100 µM throughout. Further, the TGI in experiment [10], in experiment [11] and in experiment [13] was more than 100 µM throughout.

On to `COc1cc(NP(=O)(Oc2ccccc2)Oc2ccccc2)ccc1Nc1c2ccccc2nc2c1[nH]c1ccccc12`, for which the TGI in [14] is more than 48.5 µM; in [1] it was more than 100 µM; in experiment [2] it was 8.58 µM; in experiment [3], 10.3 µM; in [4], 1.56 µM; in experiment [5], 20.9 µM. Besides, the TGI was more than 100 µM in experiment [6]; 98.1 µM in [7]; 28.6 µM in experiment [8]; 2.96 µM in experiment [9]; 2.8 µM in experiment [10]; 6.85 µM in experiment [11]. Further, the TGI in experiment [12] worked out at 21.5 µM; in experiment [13], 2.09 µM.

As for `O=C(c1cccs1)N(C(=S)N1CCN(c2ccccn2)CC1)C1CCCCC1`, the TGI in [14], in experiment [1], in [2], in experiment [3], in experiment [5] and in [6] was more than 100 µM throughout. The TGI in experiment [9], in [10], in [11] and in [13] was more than 100 µM each time.

For `COC(=O)C1=Cc2cc(OC)c(O)cc2[C@@H](c2ccc(O)c(OC)c2)[C@@H]1C(=O)OC`, the TGI in experiment [14], in experiment [1], in experiment [3], in experiment [4], in experiment [6] and in [7] was more than 100 µM throughout. Further, the TGI in experiment [8], in experiment [9], in experiment [10], in [11], in [12] and in [13] was more than 100 µM each time.

Regarding `Fc1ccccc1-c1nn2c(C34CC5CC(CC(C5)C3)C4)nnc2s1`, the TGI in [14], in experiment [1], in experiment [2], in [3], in experiment [4] and in experiment [5] was more than 100 µM each time. Also, the TGI in experiment [7], in [8], in experiment [9], in experiment [10], in experiment [11] and in [12] was more than 100 µM each time. The same compound returned a TGI in [13] of more than 100 µM.

For the compound `COc1cc(NCc2ccc3nc(OC)c(OC)nc3c2)cc(OC)c1OC`, the TGI in experiment [14], in experiment [1], in experiment [2], in experiment [3], in experiment [4] and in experiment [5] was more than 100 µM each time. Further, the TGI in experiment [6], in experiment [8], in experiment [9], in [10], in experiment [11] and in experiment [12] was more than 100 µM each time. In experiment [13], this compound gave a TGI of more than 100 µM.

With `O=C(c1ccco1)N(C(=S)N1CCN(c2ccccn2)CC1)C1CCCCC1`, the TGI in experiment [14], in [1], in experiment [2], in experiment [3], in experiment [5] and in [6] was more than 100 µM each time. Further, the TGI in experiment [9], in experiment [10], in experiment [11] and in experiment [13] was more than 100 µM in each case.
